Read-outs that look alike come from different tables or passages of the source.
Key:
[1] = tested on: MCP-1; test: Gene expression in LPS activated RAW 264.7 macrophages, MCP-1; assay type: cell-based, mouse; settings: RAW 264.7, 10 μM, LPS 1 μg/ml, RNA 3 hrs after activation, vs vehicle treated activated cells
Method: (§1) RAW 264.7 macrophages, a mouse cell line (ATCC # TIB 71), were grown in Dulbecco's modified Eagle's medium (DMEM) with 4 mM L-glutamine adjusted to contain 1.5 g/L sodium bicarbonate, 4.5 g/L glucose, and 10% heat inactivated fetal bovine serum. Cells were grown in tissue culture flasks and seeded at appropriate density into 6 wells tissue culture plates. Four million Raw cells in half a milliliter were stimulated with 1 μg/ml LPS E. coli 055:B5 (DIFCO Laboratories). The mouse macrophages were pre-treated for one hour with controls or 10 μM of test compounds, and later on activated with LPS. RNA samples were extracted from the cells 3 hrs after activation and gene expression levels were analyzed by real-time RT-PCR. In parallel, supernatants were collected and secretion of inflammatory mediators was analyzed using ELISA techniques according to the instructions of the kit manufacturer.
(§2) Total RNA is prepared using SV total RNA isolation system (Promega). The cells were homogenized in lysis buffer. The lysates were transferred to an RNA isolation column, treated with DNAse, washed and eluted according to kit instructions. RNA concentrations were determined using GeneQuant II (Pharmacia-Amersham). Complementary DNA (cDNA) was synthesized from total RNA using […] II reverse transcriptase (Life Technologies). 2 μg of total RNA were combined with an oligo (dT)15 primer, 0.5 mM dNTP mix, 8 units of reverse transcriptase and other reaction components up to a final volume of 20 μl, according to the kit instructions. The reaction mixture was incubated at 42° C. for 45 min and inactivated at 70° C. for 15 minutes. Quantitative real-time RT-PCR included 1 μl of the cDNA, 300 nM of the appropriate forward and reverse primers (according to the gene monitored) and 7.5 μl of the reaction mix containing buffer, nucleotides, Taq polymerase and SYBER green (SYBER Green master mix, Applied Biosystems), in a total reaction volume of 15 μl. Gene amplification was obtained using the GeneAmp 5700 sequence detection system (Applied Biosystems). Amplification included one stage of 10 minutes at 95° C. followed by 40 cycles of a 2-steps loop: 20 seconds at 95° C., and 1 minute at 60° C. During each annealing step, the amount of the amplified product was measured by the fluorescence of the double strand DNA binding dye, SYBER Green. The cycle of threshold (CT), representing the PCR cycle at which an increase in fluorescence above a baseline signal can be first detected, was determined for each product. A delay of one PCR cycle in the CT is translated into a two-fold decrease in starting template molecules and vice versa. The changes in the CT of the specific gene product were normalized to the changes in the CT of housekeeping cyclophilin or GAPDH as reference genes. Results were expressed as fold increase of gene expression in treated or untreated activated cells above the resting cells, after normalization to cyclophilin or GAPDH. Cells were also tested for viability to confirm that any effect on gene expression was indeed due to modulation of transcription of a specific target and not to cytoxicity.
(§3) Results were further expressed as percent inhibition of gene expression in compound treated activated cells over vehicle “treated” activated cells. Since the modulation of IL-10 and TNF-α gene expression by the compounds of the invention is relatively minor, it is not reported. […] Inhibition above 50% was considered significant.

[2] = tested on: COX-2; test: Gene expression in LPS activated RAW 264.7 macrophages, COX-2; assay type: cell-based, mouse; settings: RAW 264.7, 10 μM, LPS 1 μg/ml, RNA 3 hrs after activation, vs vehicle treated activated cells
Method: as §1, §2, §3

[3] = tested on: IL-1β; test: Gene expression in LPS activated RAW 264.7 macrophages, IL-1β; assay type: cell-based, mouse; settings: RAW 264.7, 10 μM, LPS 1 μg/ml, RNA 3 hrs after activation, vs vehicle treated activated cells
Method: as §1, §2, §3

[4] = tested on: visceral pain writhing responses; test: Visceral pain, acetic acid induced writhing responses; assay type: in vivo, Male ICR mice; settings: single dose 2 mg/kg i.v., compared to untreated group
[5] = tested on: iNOS; test: Gene expression in LPS activated RAW 264.7 macrophages, iNOS; assay type: cell-based, mouse; settings: RAW 264.7, 10 μM, LPS 1 μg/ml, RNA 3 hrs after activation, vs vehicle treated activated cells
Method: as §1, §2, §3

[6] = tested on: TNBS induced inflammatory bowel disease; test: TNBS induced inflammatory bowel disease; assay type: in vivo, Female Balb/C mice; settings: for transient loss in body weight: one day after TNBS instillation; for mortality: untreated 60%
Method: Female Balb/C mice (average body weight 20 g, Harlan, Israel) were lightly sedated and challenged rectally, by instillation with 70 μl of 2.5% TNBS (Sigma) dissolved in 50% ethanol, to induce intestinal inflammation and colitis. Animals were weighted before the beginning of the study and treatment was administered i.p. on a daily basis for six days at 20 mg/kg and volume dosage of 5 ml/kg. During the study period of up to 7 days, the following parameters were daily monitored and recorded: body weight, presence of blood in the stool and stool consistency. These findings are scored according to Table 6 [Murthy S.N. et al., Dig. Dis. Sci. 38:1722-34, 1993].
On the last day of the study, animals were euthanized. Abdomen was open and the colon was sectioned at the level of the caecum and the rectum. The colon was weighted and its length was measured. The whole column was excised, slited longitudinally, and examined under a magnifying lens. Any visible damage was recorded and scored for gross pathology according to Wong [Wong et al., J. Pharm. Exp. Ther. 274: 475-80, 1995]. Namely, a score of 0 indicates no damage, 1 indicates localized hyperemia and/or edema, 2 indicates at least two sites of hyperemia and/or edema, 3 indicates localized erosion, 4 indicates localized ulcer and 5 indicates either an erosion site or ulcer extending for more than 2 cm along the colon or at least two sites of erosion or ulcer. Finally, the entire colon was fixed in 4% formaldehyde for histopathological evaluation.
Each treatment group comprised at least seven animals. The following groups served as negative controls: naïve animals, sham animals that received 70 μl of 50% ethanol without TNBS, and TNBS challenged untreated and vehicle treated animals. A group of animals receiving 10 mg/kg sulfasalazine served as positive controls. Sulfasalazine is a standard anti-inflammatory drug used for the treatment of mild to moderate ulcerative colitis and Crohn's disease, and as adjunctive therapy in the treatment of severe ulcerative colitis. This drug is also used for the treatment of non-IBD related disorders, such as rheumatoid arthritis and ankylosing spondylitis. The recognized side effect of this medicament is its hepatotoxicity upon chronic treatment.

[7] = tested on: carrageenan induced inflammatory pain and paw edema; test: Inflammatory pain and paw edema induced by carrageenan; assay type: in vivo, Male Sprague Dawley rats; settings: for inhibition in vivo at 10 mg/kg: Rattus norvegicus, ip
How it was run: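 Male Sprague Dawley rats (~200 g) received 0.1 ml 2% λ-carrageenan subplantar in the right paw; compounds given i.p. at 3, 10 or 20 mg/kg (some p.o.) immediately after. Thermal (Hargreaves) latency, mechanical threshold, paw thickness and volume measured at 0 and 3 h; values are inter-paw differences ([…], ΔForce), volume as % of vehicle.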

[8] = tested on: mechanical allodyna after chronic constriction of the sciatic nerve; test: Neuropathic pain, chronic constriction of the sciatic nerve (CCI); assay type: in vivo, Male Sprague Dawley rats; settings: both 0.25 and 2 mg/kg i.v.
Method: The analgesic activity of compounds of the invention was assessed in a chronic constriction induced (CCI) model of neuropathic pain. […] The development of mechanical allodyna was monitored using a Dynamic Plantar Sesthesiomether as described in Example 18. This apparatus is an automated version of the classical von Frey filaments' test.
Pre-surgery baseline values were ascertained as the mean of 2 pre-surgery values. Once the baseline values are established, the animals were surgically prepared by constricting the right sciatic nerve with 4-0 chromic cat gut loose ligatures. On day 11 post-operation, the animals that have developed mechanical allodyna were arbitrarily allocated to the various treatment groups based on the pre-surgery values.
The design was randomized, performed in a masked fashion as to whether drug or vehicle is being given. Male Sprague Dawley rats (average body weight 240 g, Harlan, Israel), were allowed to acclimatize to the behavioral testing equipment prior to testing. On the testing day, the animals, at least six per treatment group, were administered the compounds and controls at a volume dosage of 5 ml/kg. Fifteen minutes later, the mechanical stimulus was applied and the force, measured in grams, causing a withdrawal response for each of the ipsilateral and contralateral hind paws was evaluated.
Results are expressed as mean±SEM for each treatment group and the differences among those groups are analyzed by analysis of variance (ANOVA) followed by post-hoc Tukey's test. A value of p<0.05 is considered to be statistically significant. Thereafter the difference in the force to be applied to the injured paw as compared to the normal paw was calculated. Δforce, expressed in grams, was measured at baseline and 1 and 4.5 hours after treatment.

[9] = target: T1, Human CB2 Receptor (Homo sapiens, UniProt P34972); test: [35S]GTPγS-binding assay, hCB2; assay type: biochemical; settings: GTPγS, Human CB2 Receptor; NB = no binding
T1 construct: host or cells: Sf9 or HEK-293 cells (membranes)
T1 sequence (P34972 whole entry): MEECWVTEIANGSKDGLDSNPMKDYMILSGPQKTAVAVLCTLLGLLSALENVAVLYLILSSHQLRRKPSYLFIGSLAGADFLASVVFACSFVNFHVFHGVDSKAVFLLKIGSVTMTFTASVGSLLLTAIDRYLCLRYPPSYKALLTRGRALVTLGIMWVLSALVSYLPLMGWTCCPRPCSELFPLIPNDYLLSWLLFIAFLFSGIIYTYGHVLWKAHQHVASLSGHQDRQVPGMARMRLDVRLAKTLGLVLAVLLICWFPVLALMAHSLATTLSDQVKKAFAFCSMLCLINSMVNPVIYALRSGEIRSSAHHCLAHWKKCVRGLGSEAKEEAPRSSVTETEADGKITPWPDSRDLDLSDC
Method: (§4) Functional activity of compounds of the invention toward the cannabinoid receptors was determined by stimulation of [^35S]-GTPγS binding using membranes from HEK-293 cells expressing the hCB1 receptor and membranes expressing the hCB2 receptor derived from either Sf9 (PerkinElmer) or from HEK-293 cells. Activities were compared to that of the known cannabinoid full agonist CP55940 (Alexis). The purpose of this experiment is to determine the potency of the compounds of the invention as agonists or antagonists toward each of the receptor tested.
(§5) [^35S]-GTPγS binding reactions were performed at 30° C. in 96-well plates containing 5-10 μg membrane protein suspended in 0.1 ml binding buffer [20 mM HEPES-NaOH, pH 7.4, 5 mM MgCl2, 100 mM NaCl, 0.2% (w/v) bovine serum albumin] supplemented with 50 μM GDP and 0.06 nM-10 μM of the compound being tested. Binding was initiated by the addition of [^35S]GTPγS (0.3 nM final concentration). Incubations were performed for 90 minutes and were terminated by filtration on GF/C filter plates (PerkinEimer). Filters were washed ten times with ice-cold wash buffer (20 mM HEPES-NaOH, pH 7.4, 10 mM sodium pyrophosphate). Non-specific binding was measured in the presence of 15 μM GTPγS.
(§6) Assays were performed in duplicates. Data was analyzed by plotting on the X axis the log concentration against percent of specific [^35S]GTPγS binding out of basal [^35S]GTPγS binding on the Y axis, non-linear regression is then performed using GraphPad Prism, version 3.0 (GraphPad, San Diego, Calif.) to calculate the EC50 and Emax of the compound. The EC50 value represents the concentration at which there is 50% [^35S]GTPγS binding and the Emax value the upper plateau of the curve.

[10] = target: T2, Human CB1 Receptor (Homo sapiens, UniProt P21554); test: [35S]GTPγS-binding assay, hCB1; assay type: biochemical; settings: NB = no binding
T2 construct: expressed in transfected cells; host or cells: HEK-293 cells (membranes)
T2 sequence (P21554 whole entry): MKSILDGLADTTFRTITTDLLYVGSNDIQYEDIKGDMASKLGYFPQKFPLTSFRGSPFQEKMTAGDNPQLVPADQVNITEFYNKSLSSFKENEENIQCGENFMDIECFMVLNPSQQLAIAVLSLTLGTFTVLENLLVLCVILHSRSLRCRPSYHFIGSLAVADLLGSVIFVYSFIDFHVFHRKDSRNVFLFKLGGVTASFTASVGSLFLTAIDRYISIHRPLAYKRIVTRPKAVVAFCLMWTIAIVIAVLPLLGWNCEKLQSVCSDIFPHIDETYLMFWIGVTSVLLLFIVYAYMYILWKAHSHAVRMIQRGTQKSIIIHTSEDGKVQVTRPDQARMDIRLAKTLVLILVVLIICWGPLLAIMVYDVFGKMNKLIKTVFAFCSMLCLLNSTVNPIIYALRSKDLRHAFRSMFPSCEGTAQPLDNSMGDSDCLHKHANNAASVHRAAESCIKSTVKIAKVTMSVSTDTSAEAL
Method: as §4, §5, §6

[11] = 10 mg/kg i.p., 3 hours, mechanical stimulus, read-out: Percent Inhibition of Inflammatory Pain Responses, ΔForce
[12] = 10 mg/kg i.p., 3 hours, thermal stimulus, read-out: Percent Inhibition of Inflammatory Pain Responses, ΔLT

## CCCCC(C)(C)c1cc(O)c2c(c1)OC1CC(C)(C)CCC21 (stereo not drawn) [Compound C6S-6, 3-(1,1-dimethylpentyl)-7,7-dimethyl-5a,6,7,8,9,9a-hexahydro-dibenzofuran-1-ol]
[1]
  Percent inhibition of gene expression, MCP-1: NO (NO indicates that the compound tested did not significantly affect the transcription of the gene assessed and that its activity is comparable to vehicle, within ±20% from this control)
[2]
  Percent inhibition of gene expression, COX-2: NO (NO indicates that the compound tested did not significantly affect the transcription of the gene assessed and that its activity is comparable to vehicle, within ±20% from this control)
[3]
  Percent inhibition of gene expression, IL-1β: 37%
[4]; Mus musculus, iv, read-out: Percent Inhibition of Visceral Pain Writhing Responses
  inhibition in vivo at 2 mg/kg: 38%
[5]
  Percent inhibition of gene expression, iNOS: NO (NO indicates that the compound tested did not significantly affect the transcription of the gene assessed and that its activity is comparable to vehicle, within ±20% from this control)

## CCCCC(C)(C)c1cc(OCC(=O)O)c2c(c1)OC1CCCCC21 (stereo not drawn) [Compound C6S-9, [3-(1,1-Dimethylpentyl)-5a,6,7,8,9,9a-hexahydro-dibenzofuran-1-yloxy]-acetic acid]
[6]; 20 mg/kg i.p. daily
  transient loss in body weight: behaved as the sulfasalazin treated group
  mortality: 0%
[7]; [11]
  inhibition in vivo at 10 mg/kg: 14%
[7]; [12]
  inhibition in vivo at 10 mg/kg: 53%

## CCCCCCC(C)(C)c1cc(OCC(=O)O)c2c(c1)OC1C(O)CCCCC21 (stereo not drawn) [Compound C7S-10, [2-(1,1-dimethylheptyl)-9-hydroxy-5,6,7,8,9,9a-hexahydro-4bH-10-oxa-benzo[α]azulen-4-yloxy]-acetic acid]
[8]; last time point (4.5 hours)
  pain response (Δforce): totally abrogated the pain response
[8]; one hour after administration
  reduction of pain response (Δforce): 70-80%
[4]
  Percent Inhibition of Visceral Pain Writhing Responses: 53%
[7]; 10 mg/kg i.p., 3 hours after carrageenan, reduction in paw swelling
  Percent Inhibition of Inflammatory Pain Responses, Edema: 41%
[7]; 10 mg/kg i.p., 3 hours, mechanical stimulus
  Percent Inhibition of Inflammatory Pain Responses, ΔForce: 25%
[7]; 10 mg/kg i.p., 3 hours, thermal stimulus
  Percent Inhibition of Inflammatory Pain Responses, ΔLT: 61%
[7]; 30 mg/kg p.o.
  inhibition of paw swelling: 60%

## CCCCC(C)(C)c1cc(OC(=O)C=CC(=O)O)c2c3c(oc2c1)CCCC3 [Compound C6M-8, But-2-enedioic acid mono-[3-(1,1-dimethylpentyl)-6,7,8,9-tetrahydro-dibenzofuran-1-yl]ester]
[9]
  EC50: > 10000 nM
[1]
  Percent inhibition of gene expression, MCP-1: 85%
[10]
  EC50: 0.25 nM
[10]; upper plateau of curve
  Emax: -25%
[3]
  Percent inhibition of gene expression, IL-1β: 51%
[5]
  Percent inhibition of gene expression, iNOS: 66%
[7]; [11]
  inhibition in vivo at 10 mg/kg: 20%
[7]; [12]
  inhibition in vivo at 10 mg/kg: 45%

## O=C(O)c1cc(/N=N/c2ccc(S(=O)(=O)Nc3ccccn3)cc2)ccc1O [sulfasalazine, reference compound]
[6]; 10 mg/kg
  regained normal weight on: 6 days
  transient loss in body weight: 10%
  mortality: 0%

Reference: patent US20090054376A1, “BENZOFURAN DERIVATIVES WITH THERAPEUTIC ACTIVITIES” (Pharmos Corporation, priority 2005, published 2009)
